Assay results taken from PMC6354011 (Scientific Reports, 2019).
Several values for one entry are separate records, joined by “and”; a condition that tells them apart may be missing. Equal entries are not always repeated. Where two headings read alike, the source gives them in different places.

Tests used:
[1] = biological target: T1, equine serum butyrylcholinesterase (BChE, EC 3.1.1.8) (Equus caballus, UniProt P81908); assay: biochemical; assay type: biochemical; details: for BChE % inhibition: single read
T1 construct: equine serum butyrylcholinesterase (BChE, EC 3.1.1.8); purchased Sigma-Aldrich (USA); host or cells: equine serum
From the text: (§1) Ellman’s colorimetric method with minor modification was employed in the determination of AChE and BChE inhibitory activities. Electric eel acetylcholinesterase (AChE, EC 3.1.1.7), equine serum butyrylcholinesterase (BChE, EC 3.1.1.8), 5,5′-Dithiobis(2-nitrobenzoic acid) (DTNB) and sodium phosphate dibasic (Na2HPO4) were purchased from Sigma-Aldrich (USA). S-butyrylthiocholine chloride (BTCC) from Sigma-Aldrich (Switzerland), acetylthiocholine iodide (ATCI) from Sigma-Aldrich (United Kingdom) and sodium phosphate monobasic (NaH2PO4) from Sigma-Aldrich (Germany) were purchased. […] Ethanol was used to replace the sample as a control in this assay.

[2] = biological target: T2, Electric eel acetylcholinesterase (AChE, EC 3.1.1.7) (Electrophorus electricus, UniProt O42275); assay: biochemical; details: mean ± SD, n = 3; read-out: IC50 (µM) AChE
T2 construct: purchased Sigma-Aldrich (USA)
From the text: as §1

[3] = mean ± SD, n = 3, read-out: IC50 (µM) BChE

T1 sequence (P81908 whole entry): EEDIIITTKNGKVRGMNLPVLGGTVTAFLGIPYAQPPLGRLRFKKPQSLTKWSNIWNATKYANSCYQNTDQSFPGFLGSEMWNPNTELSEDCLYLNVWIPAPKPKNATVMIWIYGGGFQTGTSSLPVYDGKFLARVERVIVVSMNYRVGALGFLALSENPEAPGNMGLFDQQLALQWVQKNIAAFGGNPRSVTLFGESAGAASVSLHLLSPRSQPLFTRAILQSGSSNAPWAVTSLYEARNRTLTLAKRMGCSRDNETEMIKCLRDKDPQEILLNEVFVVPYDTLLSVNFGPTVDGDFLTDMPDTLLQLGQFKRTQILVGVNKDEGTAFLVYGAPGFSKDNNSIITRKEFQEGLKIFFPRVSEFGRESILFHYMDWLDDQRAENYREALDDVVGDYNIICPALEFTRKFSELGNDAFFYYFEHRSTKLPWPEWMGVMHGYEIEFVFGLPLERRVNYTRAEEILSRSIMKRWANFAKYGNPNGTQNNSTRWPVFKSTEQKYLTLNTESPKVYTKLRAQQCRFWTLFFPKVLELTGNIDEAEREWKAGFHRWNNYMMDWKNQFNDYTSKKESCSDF
T2 sequence (O42275 24-633): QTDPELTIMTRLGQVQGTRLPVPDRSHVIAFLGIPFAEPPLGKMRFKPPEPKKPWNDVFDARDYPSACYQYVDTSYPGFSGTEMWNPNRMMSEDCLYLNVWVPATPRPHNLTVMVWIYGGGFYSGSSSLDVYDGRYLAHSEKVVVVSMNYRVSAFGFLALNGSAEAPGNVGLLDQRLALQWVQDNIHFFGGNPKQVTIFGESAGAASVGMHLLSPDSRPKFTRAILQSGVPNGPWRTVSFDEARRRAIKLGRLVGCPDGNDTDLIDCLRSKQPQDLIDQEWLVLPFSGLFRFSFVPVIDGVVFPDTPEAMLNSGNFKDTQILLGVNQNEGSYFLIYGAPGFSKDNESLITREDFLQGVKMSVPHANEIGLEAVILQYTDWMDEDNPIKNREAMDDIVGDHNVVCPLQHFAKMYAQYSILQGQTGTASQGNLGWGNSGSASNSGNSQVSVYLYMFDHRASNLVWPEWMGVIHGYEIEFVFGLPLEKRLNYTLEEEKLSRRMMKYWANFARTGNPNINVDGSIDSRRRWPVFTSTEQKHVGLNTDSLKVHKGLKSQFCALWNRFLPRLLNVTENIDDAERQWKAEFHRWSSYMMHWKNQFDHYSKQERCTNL

Structure (SMILES): Cc1cccn2cc(-c3ccc(Cl)cc3)nc12 [Compound 2n, 2-(4-chlorophenyl)-8-methylimidazo[1,2-a]pyridine]
- IC50 ([1]; N = 3, unit not given (µg/mL scale), read-out: BChE IC50, Tukey HSD homogeneous subsets (group mean) (converted)): 737 µM
- BChE % inhibition ([1]; conc 25 (µg/mL)): 10.83% and 20.0586% and 13.47%
- BChE % inhibition ([1]; conc 100 (µg/mL)): 42.02% and 27.53% and 43.78%
- BChE % inhibition ([1]; conc 150 (µg/mL)): 45.53% and 45.97% and 50.81%
- BChE % inhibition ([1]; conc 200 (µg/mL)): 56.52% and 54.76% and 59.15%
- BChE % inhibition ([1]; conc 250 (µg/mL)): 63.98% and 61.79%
- IC50 [1, 3]: 722 ± 48 µM
- IC50 [2]: > 2000 µM

Structure (SMILES): Cc1cccn2cc(-c3ccc(Br)cc3)nc12 [Compound 2o, 2-(4-bromophenyl)-8-methylimidazo[1,2-a]pyridine]
- IC50 [1, 3]: > 2000 µM
- IC50 [2]: > 2000 µM
